The target in the experiment is P2X7 receptor (Homo sapiens (Human), UniProt Q99572). In words: P2X7 FLIPR assay (BzATP-stimulated calcium fluorescence, antagonist IC50). The experiment is classed as cell-based. The procedure, abridged:
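Cells expressing P2X7 receptor (human, rat or mouse), plated 24 hours earlier in low-serum medium, loaded with Fluo-4 NW dye (30 min 37° C, 30 min room temperature).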
Chain of P2X7 receptor (Q99572 whole entry): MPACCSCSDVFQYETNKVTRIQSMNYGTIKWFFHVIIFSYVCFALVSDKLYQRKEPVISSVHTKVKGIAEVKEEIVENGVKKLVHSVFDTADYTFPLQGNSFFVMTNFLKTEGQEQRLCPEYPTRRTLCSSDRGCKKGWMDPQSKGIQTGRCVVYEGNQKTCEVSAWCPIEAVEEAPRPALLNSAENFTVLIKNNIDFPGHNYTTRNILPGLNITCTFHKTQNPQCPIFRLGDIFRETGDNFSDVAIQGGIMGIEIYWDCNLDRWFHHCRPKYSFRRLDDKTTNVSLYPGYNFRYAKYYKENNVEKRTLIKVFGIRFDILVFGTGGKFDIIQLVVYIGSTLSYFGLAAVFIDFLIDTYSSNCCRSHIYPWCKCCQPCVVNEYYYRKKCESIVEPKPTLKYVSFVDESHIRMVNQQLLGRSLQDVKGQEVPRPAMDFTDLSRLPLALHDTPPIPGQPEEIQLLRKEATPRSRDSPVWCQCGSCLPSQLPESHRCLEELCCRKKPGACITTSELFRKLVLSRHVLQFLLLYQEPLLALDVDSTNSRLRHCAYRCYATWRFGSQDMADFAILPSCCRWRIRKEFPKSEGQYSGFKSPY
With `Cc1ncc(C(CNC(=O)c2cccc(Cl)c2Cl)CC2(C(F)(F)F)CC2)cn1` (centres unmarked) [2,3-dichloro-N-[2-(2-methylpyrimidin-5-yl)-3-[1-(trifluorome] [2,3-dichloro-N-[2-(2-methylpyrimidin-5-yl)-3-[1-(trifluoromethyl)cyclopropyl]propyl]benzamide], the IC50 stood at 7.1 nM. For `O=C(NCC(CC1CC1)c1cncc(Cl)c1)c1cccc(Cl)c1Cl` (centres unmarked) [2,3-dichloro-N-(2-(5-chloropyridin-3-yl)-3-cyclopropylpropyl)benzamide], the IC50 came out at 5.5 nM. As for `O=C(NCC1(c2ccc(F)nc2)CCC(F)(F)CC1)c1cc(C(F)(F)F)ccc1Cl` [2-chloro-N-[[4,4-difluoro-1-(6-fluoro-3-pyridyl)cyclohexyl]methyl]-5-(trifluoromethyl)benzamide], the figure is 1.2 nM; as for `Cc1ncc(C(CNC(=O)c2ccccc2Cl)CC2(C(F)(F)F)CC2)cn1` (single isomer, unassigned; (+)) [(+)2-chloro-N-[2-(2-methylpyrimidin-5-yl)-3-[1-(trifluoromet] [(+)2-chloro-N-[2-(2-methylpyrimidin-5-yl)-3-[1-(trifluoromethyl)cyclopropyl]propyl]benzamide], 130 nM; as for `O=C(NCC(CC1CC1)c1ccc(C(F)F)nc1)c1ccccc1Cl` (single isomer, unassigned; (+)) [(+)2-chloro-N-[3-cyclopropyl-2-[6-(difluoromethyl)-3-pyridyl] [(+)2-chloro-N-[3-cyclopropyl-2-[6-(difluoromethyl)-3-pyridyl]propyl]benzamide], 640 nM. Turning to `O=C(NCC(CC1CC1)c1cnc(C(F)(F)F)nc1)c1cccc(F)c1Cl` (single isomer, unassigned; (-)) [(−)2-chloro-N-[3-cyclopropyl-2-[2-(trifluoromethyl)pyrimidin] [(−)2-chloro-N-[3-cyclopropyl-2-[2-(trifluoromethyl)pyrimidin-5-yl]propyl]-3-fluoro-benzamide], the IC50 was 4.7 nM. On to `COc1ccc(C2(CNC(=O)c3cccc(Cl)c3Cl)CCC(F)(F)CC2)cn1` [2,3-dichloro-N-((4,4-difluoro-1-(6-methoxypyridin-3-yl)cyclohexyl)methyl)benzamide], for which the IC50 worked out at 0.96 nM. For the compound `O=C(NCC1(c2ccc(F)nc2)CCC(F)(F)CC1)c1cccc(Cl)c1Cl` [2,3-dichloro-N-[[4,4-difluoro-1-(6-fluoro-3-pyridyl)cyclohexyl]methyl]benzamide], the half-inhibitory concentration (IC50) worked out at 0.28 nM. Turning to `COc1cccc(C(=O)NCC(CC2CC2)c2ccc(C(F)F)nc2)c1Cl` (single isomer, unassigned; (+)) [(+)2-chloro-N-[3-cyclopropyl-2-[6-(difluoromethyl)-3-pyridyl]propyl]-3-methoxy-benzamide], the IC50 was determined as 4.4 nM.

As for `O=C(NCC1(c2ccc(F)nc2)CCC(F)(F)CC1)c1cccc(Cl)c1F` [3-chloro-N-((4,4-difluoro-1-(6-fluoropyridin-3-yl)cyclohexyl)methyl)-2-fluorobenzamide], the IC50 stood at 11 nM. As for `O=C(NCC(CC1CC1)c1ccc(C(F)(F)F)nc1)c1c(Cl)cccc1Cl` (centres unmarked) [2,6-dichloro-N-(3-cyclopropyl-2-(6-(trifluoromethyl)pyridin-] [2,6-dichloro-N-(3-cyclopropyl-2-(6-(trifluoromethyl)pyridin-3-yl)propyl)benzamide], the IC50 stood at 0.71 nM.

For the compound `COc1cccc(C(=O)NCC(CC2CC2)c2ccc(C(F)(F)F)nc2)c1Cl` (single isomer, unassigned; (-)) [(−)2-chloro-N-[3-cyclopropyl-2-[6-(trifluoromethyl)-3-pyridy] [(−)2-chloro-N-[3-cyclopropyl-2-[6-(trifluoromethyl)-3-pyridyl]propyl]-3-methoxy-benzamide], the IC50 worked out at 4.2 nM. With `COc1ccccc1C(=O)NCC1(c2ccc(Cl)cc2)CCOCC1` [N-[4-(4-Chloro-phenyl)-tetrahydro-pyran-4-ylmethyl]-2-methoxy-benzamide], the IC50 was 620 nM. Regarding `O=C(NCC(CC1CC1)c1ccc(C(F)(F)F)nc1)c1cccc(C(F)(F)F)c1Cl` (single isomer, unassigned; (+)) [(+)2-chloro-N-[3-cyclopropyl-2-[6-(trifluoromethyl)-3-pyridy] [(+)2-chloro-N-[3-cyclopropyl-2-[6-(trifluoromethyl)-3-pyridyl]propyl]-3-(trifluoromethyl)benzamide], the IC50 is 1100 nM.

One may read the IC50 as the concentration that gives 50% inhibition.
